pIC50, pKi: −log10 of the molar value. The source made the active and inactive calls. The calls are words filed in the database; no cut-off is given here.
How the values were obtained:
[1] = system: Mus musculus; assay: Locomotor activity in CD1 mouse assessed as stimulation at 0.3 mg/kg, ip after 1 hr relative to control; assay type: functional; details: route intraperitoneal
[2] = system: Mus musculus; assay: Locomotor activity in CD1 mouse assessed as stimulation at 0.3 mg/kg, ip after 2 hrs relative to control; assay type: functional; details: route intraperitoneal
[3] = system: Mus musculus; assay: Locomotor activity in CD1 mouse assessed as stimulation at 0.3 mg/kg, ip after 3 hrs relative to control; assay type: functional; details: route intraperitoneal
[4] = system: Mus musculus; assay: Locomotor activity in CD1 mouse assessed as stimulation at 0.3 mg/kg, ip after 4 hrs relative to control; assay type: functional; details: route intraperitoneal
[5] = system: Mus musculus; assay: Locomotor activity in CD1 mouse assessed as stimulation at 1 mg/kg, ip after 1 hr relative to control; assay type: functional; details: route intraperitoneal
[6] = system: Mus musculus; assay: Locomotor activity in CD1 mouse assessed as stimulation at 1 mg/kg, ip after 2 hrs relative to control; assay type: functional; details: route intraperitoneal
[7] = system: Mus musculus; assay: Locomotor activity in CD1 mouse assessed as stimulation at 1 mg/kg, ip after 3 hrs relative to control; assay type: functional; details: route intraperitoneal
[8] = system: Mus musculus; assay: Locomotor activity in CD1 mouse assessed as stimulation at 1 mg/kg, ip after 4 hrs relative to control; assay type: functional; details: route intraperitoneal
[9] = system: Mus musculus; assay: Locomotor activity in CD1 mouse assessed as stimulation at 0.1 mg/kg, ip after 1 hr relative to control; assay type: functional; details: route intraperitoneal
[10] = system: Mus musculus; assay: Locomotor activity in CD1 mouse assessed as stimulation at 0.1 mg/kg, ip after 2 hrs relative to control; assay type: functional; details: route intraperitoneal
[11] = system: Mus musculus; assay: Locomotor activity in CD1 mouse assessed as stimulation at 0.1 mg/kg, ip after 3 hrs relative to control; assay type: functional; details: route intraperitoneal
[12] = system: Mus musculus; assay: Locomotor activity in CD1 mouse assessed as stimulation at 0.1 mg/kg, ip after 4 hrs relative to control; assay type: functional; details: route intraperitoneal
[13] = system: Mus musculus; assay: Locomotor activity in CD1 mouse assessed as stimulation at 0.03 mg/kg, ip after 1 hr relative to control; assay type: functional; details: route intraperitoneal
[14] = system: Mus musculus; assay: Locomotor activity in CD1 mouse assessed as stimulation at 0.03 mg/kg, ip after 2 hrs relative to control; assay type: functional; details: route intraperitoneal
[15] = system: Mus musculus; assay: Locomotor activity in CD1 mouse assessed as stimulation at 0.03 mg/kg, ip after 3 hrs relative to control; assay type: functional; details: route intraperitoneal
[16] = system: Mus musculus; assay: Locomotor activity in CD1 mouse assessed as stimulation at 0.03 mg/kg, ip after 4 hrs relative to control; assay type: functional; details: route intraperitoneal
[17] = system: Rattus norvegicus; assay: Cocaine discrimination in ip dosed CD Albino rat; assay type: functional
[18] = system: Rattus norvegicus; assay: Drug discrimination effect in CD Albino rat assessed as percent of rat choosing cocaine lever at 0.17 mg/kg, ip; assay type: functional; details: route intraperitoneal
[19] = system: Rattus norvegicus; assay: Drug discrimination effect in CD Albino rat assessed as percent of rat choosing cocaine lever at 0.3 mg/kg, ip; assay type: functional; details: route intraperitoneal
[20] = system: Mus musculus; assay: Activity in CD1 mouse assessed as hyperactivity at 1 mg/kg, ip after 4 hrs; assay type: functional, organism-based; design: dose 1 mg/kg
[21] = system: Mus musculus; assay: Activity in CD1 mouse assessed as stereotypy at 1 mg/kg, ip after 4 hrs; assay type: functional, organism-based; design: dose 1 mg/kg
[22] = system: Mus musculus; assay: Activity in CD1 mouse assessed as stereotypy at 10 mg/kg, ip after 4 hrs; assay type: functional, organism-based; design: dose 10 mg/kg
[23] = system: Mus musculus; assay: Activity in CD1 mouse assessed as circling at 10 mg/kg, ip after 4 hrs; assay type: functional, organism-based; design: dose 10 mg/kg
[24] = system: Mus musculus; assay: Activity in CD1 mouse assessed as stereotypy at 100 mg/kg, ip after 4 hrs; assay type: functional, organism-based; design: dose 100 mg/kg
[25] = system: Mus musculus; assay: Activity in CD1 mouse assessed as circling at 100 mg/kg, ip after 4 hrs; assay type: functional, organism-based; design: dose 100 mg/kg
[26] = biological target: Sodium-dependent dopamine transporter (Homo sapiens, UniProt Q01959); assay: Displacement of [3H]WIN-35428 from DAT
Sequence of Sodium-dependent dopamine transporter (Q01959 whole entry): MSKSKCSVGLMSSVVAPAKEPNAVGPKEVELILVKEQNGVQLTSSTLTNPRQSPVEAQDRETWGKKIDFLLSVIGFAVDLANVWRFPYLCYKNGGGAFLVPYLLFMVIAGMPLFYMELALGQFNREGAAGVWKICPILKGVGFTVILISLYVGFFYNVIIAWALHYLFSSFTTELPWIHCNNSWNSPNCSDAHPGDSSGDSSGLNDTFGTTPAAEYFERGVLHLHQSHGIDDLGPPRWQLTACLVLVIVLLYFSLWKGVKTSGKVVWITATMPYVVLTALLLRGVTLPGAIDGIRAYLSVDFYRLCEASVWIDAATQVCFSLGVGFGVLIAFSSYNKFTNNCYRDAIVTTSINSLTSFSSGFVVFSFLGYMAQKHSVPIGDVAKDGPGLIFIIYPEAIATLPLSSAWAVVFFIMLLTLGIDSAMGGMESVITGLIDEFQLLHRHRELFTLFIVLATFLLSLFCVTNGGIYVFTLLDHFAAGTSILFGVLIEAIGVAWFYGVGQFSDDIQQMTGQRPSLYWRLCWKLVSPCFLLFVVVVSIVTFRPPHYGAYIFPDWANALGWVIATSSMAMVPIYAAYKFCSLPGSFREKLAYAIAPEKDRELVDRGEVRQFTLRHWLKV

[27] = system: Mus musculus; assay: Locomotor activity in ip dosed CD1 mouse in peak hour; assay type: functional
[28] = system: Rattus norvegicus; assay: Drug discrimination effect in CD Albino rat assessed as percent of rat choosing cocaine lever at 0.1 mg/kg, ip; assay type: functional; details: route intraperitoneal
[29] = biological target: Sodium-dependent serotonin transporter (Homo sapiens, UniProt P31645)
Sequence of Sodium-dependent serotonin transporter (P31645 whole entry): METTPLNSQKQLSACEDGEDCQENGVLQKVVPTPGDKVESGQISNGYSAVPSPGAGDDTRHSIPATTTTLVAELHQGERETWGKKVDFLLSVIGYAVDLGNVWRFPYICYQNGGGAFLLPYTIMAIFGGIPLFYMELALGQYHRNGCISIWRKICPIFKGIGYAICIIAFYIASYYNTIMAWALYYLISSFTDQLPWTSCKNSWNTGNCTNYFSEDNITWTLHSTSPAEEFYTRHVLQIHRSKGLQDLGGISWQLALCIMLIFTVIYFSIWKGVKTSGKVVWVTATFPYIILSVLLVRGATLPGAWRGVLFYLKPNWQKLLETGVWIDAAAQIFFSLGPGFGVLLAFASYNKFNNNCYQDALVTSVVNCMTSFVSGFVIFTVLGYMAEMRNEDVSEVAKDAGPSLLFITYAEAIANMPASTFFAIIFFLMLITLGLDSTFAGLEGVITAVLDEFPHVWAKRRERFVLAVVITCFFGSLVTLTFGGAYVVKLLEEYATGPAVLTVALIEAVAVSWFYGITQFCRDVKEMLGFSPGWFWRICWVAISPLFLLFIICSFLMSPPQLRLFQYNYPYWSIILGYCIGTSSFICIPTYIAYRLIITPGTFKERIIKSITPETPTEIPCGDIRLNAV
Description: Displacement of [3H]paroxetine from 5HTT

[30] = system: Rattus norvegicus; assay: Drug discrimination effect in CD Albino rat assessed as percent of rat choosing cocaine lever at 1 mg/kg, ip; assay type: functional; details: route intraperitoneal
[31] = system: Rattus norvegicus; assay: Drug discrimination effect in CD Albino rat assessed as percent of rat choosing cocaine lever at 1.7 mg/kg, ip; assay type: functional; details: route intraperitoneal
[32] = system: Rattus norvegicus; assay: Drug discrimination effect in CD Albino rat assessed as percent of rat choosing cocaine lever at 3 mg/kg, ip; assay type: functional; details: route intraperitoneal
[33] = system: Rattus norvegicus; assay: Drug discrimination effect in CD Albino rat assessed as percent of rat choosing cocaine lever at 5.6 mg/kg, ip; assay type: functional; details: route intraperitoneal
[34] = system: Mus musculus; assay: Activity in CD1 mouse assessed as hyperactivity at 10 mg/kg, ip after 4 hrs; assay type: functional, organism-based; design: dose 10 mg/kg
[35] = system: Mus musculus; assay: Locomotor activity in CD1 mouse assessed as stimulation at 3 mg/kg, ip after 1 hr relative to control; assay type: functional; details: route intraperitoneal
[36] = system: Mus musculus; assay: Locomotor activity in CD1 mouse assessed as stimulation at 3 mg/kg, ip after 2 hrs relative to control; assay type: functional; details: route intraperitoneal
[37] = system: Mus musculus; assay: Locomotor activity in CD1 mouse assessed as stimulation at 3 mg/kg, ip after 3 hrs relative to control; assay type: functional; details: route intraperitoneal
[38] = system: Mus musculus; assay: Locomotor activity in CD1 mouse assessed as stimulation at 3 mg/kg, ip after 4 hrs relative to control; assay type: functional; details: route intraperitoneal
[39] = system: Mus musculus; assay: Locomotor activity in CD1 mouse assessed as stimulation at 10 mg/kg, ip after 1 hr relative to control; assay type: functional; details: route intraperitoneal
[40] = system: Mus musculus; assay: Locomotor activity in CD1 mouse assessed as stimulation at 10 mg/kg, ip after 2 hrs relative to control; assay type: functional; details: route intraperitoneal
[41] = system: Mus musculus; assay: Locomotor activity in CD1 mouse assessed as stimulation at 10 mg/kg, ip after 3 hrs relative to control; assay type: functional; details: route intraperitoneal
[42] = system: Mus musculus; assay: Locomotor activity in CD1 mouse assessed as stimulation at 10 mg/kg, ip after 4 hrs relative to control; assay type: functional; details: route intraperitoneal
[43] = system: Mus musculus; assay: Locomotor activity in CD1 mouse assessed as stimulation at 30 mg/kg, ip after 1 hr relative to control; assay type: functional; details: route intraperitoneal
[44] = system: Mus musculus; assay: Locomotor activity in CD1 mouse assessed as stimulation at 30 mg/kg, ip after 2 hrs relative to control; assay type: functional; details: route intraperitoneal
[45] = system: Mus musculus; assay: Locomotor activity in CD1 mouse assessed as stimulation at 30 mg/kg, ip after 3 hrs relative to control; assay type: functional; details: route intraperitoneal
[46] = system: Mus musculus; assay: Locomotor activity in CD1 mouse assessed as stimulation at 30 mg/kg, ip after 4 hrs relative to control; assay type: functional; details: route intraperitoneal
[47] = system: Mus musculus; assay: Activity in CD1 mouse assessed as stimulation at 1 mg/kg, ip after 4 hrs; assay type: functional, organism-based; design: dose 1 mg/kg

COC(=O)[C@@H]1C2CCC(C[C@@H]1c1ccc(Br)cc1)N2C (stereo not given in full) was tested, and the Activity [1] was 259%, the Activity [2] was 598% and the Activity [3] was 869%. For the same compound, the Activity [4] was 834%, the Activity [5] was 258% and the Activity [6] was 35%. For the same compound, the Activity [7] was 302%, the Activity [8] was 656% and the Activity [9] was -38%. The Activity [10] was 29%, the Activity [11] was 81% and the Activity [12] was 116%. It also gave an Activity [13] of -30%, an Activity [14] of -39% and an Activity [15] of 9%. It also gave an Activity [16] of -43%, an ED50 [17] of 0.17 mg/kg and an Activity [18] of 50%. For the same compound, the Activity [19] was 100%, the Activity [20] was “Active” and the Activity [21] was “Active”. For the same compound, the Activity [22] was “Active”, the Activity [23] was “Active” and the Activity [24] was “Active”. For the same compound, the Activity [25] was “Active”, the pIC50 [26] was 8.77 and the ED50 [27] was 0.1 mg/kg. It also gave an Activity [28] of 14%, a pIC50 [29] of 7.97 and a pKi [29] of 9.02.
COC(=O)[C@@H]1C2CCC(C[C@H]1c1ccc(Br)cc1)N2C (stereo not given in full) was tested, and the Activity [5] was 35%, the Activity [6] was -26% and the Activity [7] was -56%. For the same compound, the Activity [8] was -12%, the ED50 [17] was 2.98 mg/kg and the Activity [30] was 13%. The Activity [31] was 13%, the Activity [32] was 50% and the Activity [33] was 88%. The Activity [34] was “Active”, the Activity [22] was “Active” and the Activity [24] was “Active”. The Activity [25] was “Active”, the pIC50 [26] was 8.77 and the ED50 [27] was 6.6 mg/kg. The Activity [35] was 60%, the Activity [36] was 88% and the Activity [37] was 100%. For the same compound, the Activity [38] was 109%, the Activity [39] was 353% and the Activity [40] was 457%. The Activity [41] was 686%, the Activity [42] was 781% and the Activity [43] was 518%. The Activity [44] was 861%, the Activity [45] was 1275% and the Activity [46] was 883%. The Activity [47] was “Active”, the pIC50 [29] was 7.08 and the pKi [29] was 7.69.
